This note sets out measurements from patent US8598202B2, “Aryl-hydroxyethylamino-pyrimidines and triazines as modulators of fatty acid amide hydrolase” (Janssen Pharmaceutica NV, priority 2008, dated 2013).

For one assay, the target named is T1, Rat FAAH-1 (Rattus norvegicus, UniProt P97612).
T1 sequence (P97612 1-579): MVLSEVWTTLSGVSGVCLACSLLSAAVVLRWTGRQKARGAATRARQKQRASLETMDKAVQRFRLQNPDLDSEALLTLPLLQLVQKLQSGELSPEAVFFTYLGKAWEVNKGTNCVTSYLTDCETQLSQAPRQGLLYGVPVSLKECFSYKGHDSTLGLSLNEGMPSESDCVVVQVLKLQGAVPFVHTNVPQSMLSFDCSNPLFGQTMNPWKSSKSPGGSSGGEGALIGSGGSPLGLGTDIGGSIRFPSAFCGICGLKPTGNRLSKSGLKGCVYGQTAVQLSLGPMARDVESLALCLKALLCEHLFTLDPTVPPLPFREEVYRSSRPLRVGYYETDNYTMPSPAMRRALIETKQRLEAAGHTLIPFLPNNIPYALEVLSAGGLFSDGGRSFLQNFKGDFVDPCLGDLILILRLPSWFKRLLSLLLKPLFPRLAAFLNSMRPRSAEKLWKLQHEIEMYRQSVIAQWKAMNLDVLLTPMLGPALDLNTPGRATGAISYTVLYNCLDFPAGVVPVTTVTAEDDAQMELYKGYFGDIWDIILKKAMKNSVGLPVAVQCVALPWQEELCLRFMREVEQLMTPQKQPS
In words: Assay Method 2: rat FAAH-1 assay, 3H-anandamide hydrolysis in homogenate of SK-N-MC cells transfected with rat FAAH.

A further assay addresses T2, FAAH (Homo sapiens, UniProt O00519).
T2 sequence (O00519 1-579): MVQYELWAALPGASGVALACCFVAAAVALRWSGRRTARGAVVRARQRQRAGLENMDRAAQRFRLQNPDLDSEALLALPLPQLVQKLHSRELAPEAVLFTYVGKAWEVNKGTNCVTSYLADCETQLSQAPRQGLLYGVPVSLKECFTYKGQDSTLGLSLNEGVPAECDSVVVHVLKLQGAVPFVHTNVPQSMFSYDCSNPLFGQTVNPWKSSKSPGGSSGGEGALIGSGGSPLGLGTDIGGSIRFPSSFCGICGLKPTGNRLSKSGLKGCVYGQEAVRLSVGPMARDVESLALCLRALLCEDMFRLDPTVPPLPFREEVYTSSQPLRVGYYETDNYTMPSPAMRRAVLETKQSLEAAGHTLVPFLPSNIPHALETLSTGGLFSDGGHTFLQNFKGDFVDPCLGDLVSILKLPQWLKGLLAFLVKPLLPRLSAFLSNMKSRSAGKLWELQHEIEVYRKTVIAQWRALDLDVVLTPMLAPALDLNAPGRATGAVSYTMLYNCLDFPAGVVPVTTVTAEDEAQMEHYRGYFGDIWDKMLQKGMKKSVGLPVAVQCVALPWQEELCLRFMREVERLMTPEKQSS
In words: Assay Method 1: FAAH assay, 3H-anandamide hydrolysis in homogenate of T84 cells or SK-N-MC cells transfected with human FAAH.

Counter-ions that a name gives are not always drawn.

As a reminder, the IC50 is the concentration that gives 50% inhibition.

Procedure for Rat FAAH-1: The assay mixture consisted of 50 μL of the cell homogenate, 10 μL of the test compound, and 40 μL of anandamide [1-^3H-ethanolamine] (^3H-AEA, Perkin-Elmer, 10.3 Ci/mmol), which was added last, for a final tracer concentration of 80 nM. The reaction mixture was incubated at rt for 1 h. During the incubation, 96-well Multiscreen filter plates (catalog number MAFCNOB50; Millipore, Bedford, Mass., USA) were loaded with 25 μL of activated charcoal (Multiscreen column loader, catalog number MACL09625, Millipore) and washed once with 100 μL of MeOH. […] After the 1 h incubation, 60 μL of the reaction mixture were transferred to the charcoal plates, which were then assembled on top of the DYNEX plates using Centrifuge Alignment Frames (catalog number MACF09604, Millipore). The unbound labeled ethanolamine was centrifuged through to the bottom plate (5 min at 2000 rpm), which was preloaded with the scintillant, as described above. The plates were sealed and left at rt for 1 h before counting on a Hewlett Packard TopCount.

As for `OC(CNc1cc(-c2ccc(C(F)(F)F)c(Cl)c2)ncn1)c1cc(-c2ccc(Cl)cc2)no1` (stereo not drawn) [Example 214, 1-[3-(4-Chloro-phenyl)-isoxazol-5-yl]-2-[6-(3-chloro-4-trifluoromethyl-Phenyl)-pyrimidin-4-ylamino]-ethanol], the IC50 worked out at 160 nM against Rat FAAH-1 and 36 nM at FAAH.
The like results for `CSc1nc(NC[C@H](O)c2ccccc2)cc(-c2ccc(C(F)(F)F)c(Cl)c2)n1` [Example 60, (1R)-2-({6-[3-Chloro-4-(trifluoromethyl)phenyl]-2-(methylsulfanyl)pyrimidin-4-yl}amino)-1-phenylethanol trifluoroacetic acid salt] were, in that order, 28 nM and 6 nM.
For the compound `O[C@@H](CNc1cc(-c2ccc3nonc3c2)ncn1)c1ccccc1` [Example 45, (1R)-2-{[6-(2,1,3-Benzoxadiazol-5-yl)pyrimidin-4-yl]amino}-1-Phenylethanol trifluoroacetic acid salt], the figures for the IC50 against Rat FAAH-1 and against FAAH were 600 nM and 150 nM, respectively.
`OC(CNc1cc(-c2ccc(C(F)(F)F)c(Cl)c2)ncn1)c1nccs1` (stereo not drawn) [Example 169, 2-({6-[3-Chloro-4-(trifluoromethyl)phenyl]pyrimidin-4-yl}amino)-1-(1,3-thiazol-2-yl)ethanol]: the values for the half-maximal inhibitory concentration (IC50) against Rat FAAH-1 and against FAAH were 8000 nM and 6000 nM, respectively.
The like results for `OC(CNc1cc(-c2ccc(OC(F)(F)F)cc2)ncn1)c1ccc2c(c1)OC(F)(F)O2` (stereo not drawn) [Example 122, 1-(2,2-Difluoro-1,3-benzodioxol-5-yl)-2-[(6-{4-[(trifluoromethyl)oxy]phenyl}pyrimidin-4-yl)amino]ethanol] were, in that order, 19 nM and 13 nM.
As to `C[C@H](Nc1cc(-c2ccc(C(F)(F)F)c(Cl)c2)ncn1)[C@H](O)c1ccccc1` [Example 179], the IC50 was 40 nM on Rat FAAH-1 and 9 nM against FAAH.
The corresponding values for `OCc1ccc(-c2cc(NC[C@H](O)c3ccccc3)ncn2)cc1` [Example 21, (1R)-2-([6-[4-(Hydroxymethyl)phenyl]pyrimidin-4-yl]amino)-1-Phenylethanol] are 1500 nM and 340 nM.
The like results for `OC(CNc1cc(-c2ccc3ccccc3c2)ncn1)c1ccccc1` (stereo not drawn) [Example 235, 2-[(6-Naphthalen-2-ylpyrimidin-4-yl)amino]-1-phenylethanol] were, in that order, 324 nM and 21 nM.
As to `CC(C)Oc1ccc(-c2cc(NC[C@H](O)c3ccccc3)ncn2)cc1F` [Example 36, (1R)-2-({6-[3-Fluoro-4-(1-methylethoxy)phenyl]pyrimidin-4-yl}amino)-1-phenylethanol trifluoroacetic acid salt], the IC50 at Rat FAAH-1 is 20 nM; on FAAH, 8 nM.
The like results for `O[C@@H](CNc1cc(-c2ccc(C(F)(F)F)c(Cl)c2)ncn1)c1ccc(F)cc1` [Example 62, (1R)-2-({6-[3-Chloro-4-(trifluoromethyl)phenyl]ivrimidin-4-yl}amino)-1-(4-fluorophenyl)ethanol] were, in that order, 3 nM and 2 nM.
`O[C@@H](CNc1cc(-c2ccc3c(c2)OC(F)(F)O3)ncn1)c1ccccc1` [Example 183, (1R)-2-{[6-(2,2-Difluoro-1,3-benzodioxol-5-yl)pyrimidin-4-yl]amino}-1-phenylethanol]: the IC50 against Rat FAAH-1 worked out at 89 nM; against FAAH it was 36 nM.
Take `O[C@@H](CNc1cc(-c2ccc(OC(F)(F)F)c(Cl)c2)ncn1)c1ccccc1` [Example 181, (1R)-2-({6-[3-Chloro-4-(trifluoromethoxy)phenyl]pyrimidin-4-yl}amino)-1-phenylethanol]: the IC50 amounted to 20 nM on Rat FAAH-1 and 7 nM on FAAH.
The like results for `OC(CNc1cc(-c2ccsc2)ncn1)c1ccccc1` (stereo not drawn) [Example 245, 1-Phenyl-2-(6-thiophen-3-yl-pyrimidin-4-ylamino)-ethanol] were, in that order, above 10000 nM and above 10000 nM.
Consider `O[C@@H](CNc1cc(-c2ccc(OC(F)(F)F)c(Cl)c2)ncn1)c1ccc(F)cc1` [Example 175, (1R)-2-({6-[3-Chloro-4-(trifluoromethoxy)phenyl]pyrimidin-4-yl}amino)-1-(4-fluorophenyl)ethanol trifluoroacetic acid salt], for which the figures for the IC50 against Rat FAAH-1 and against FAAH were 3 nM and 2 nM, respectively.
The like results for `OC(CNc1cc(-c2cccs2)ncn1)c1ccccc1` (stereo not drawn) [Example 244, 1-Phenyl-2-(6-thiophen-2-yl-pyrimidin-4-ylamino)-ethanol] were, in that order, above 10000 nM and above 10000 nM.
As for `CC(C)COc1ccc(-c2cc(NC[C@H](O)c3ccccc3)ncn2)cc1` [Example 37, (1R)-2-({6-[4-(2-Methylpropoxy)phenyl]pyrimidin-4-yl}amino)-1-phenylethanol trifluoroacetic acid salt], the IC50 worked out at 8000 nM at Rat FAAH-1 and 400 nM at FAAH.
With `CN(C)c1ccc(-c2cc(NC[C@H](O)c3ccccc3)ncn2)cn1` [Example 78, (1R)-2-({6-[6-(Dimethylamino)pyridin-3-yl]pyrimidin-4-yl}amino)-1-phenylethanol], the figures for the IC50 against Rat FAAH-1 and on FAAH were above 10000 nM and 633 nM, respectively.
As for `OC(CNc1cc(-c2cc(C(F)(F)F)cc(C(F)(F)F)c2)ncn1)c1ccccc1` (stereo not drawn) [Example 239, 2-[6-(3,5-Bis-trifluoromethyl-phenyl)-pyrimidin-4-ylamino]-1-phenyl-ethanol], the IC50 on Rat FAAH-1 and at FAAH was above 10000 nM in each case.
Regarding `OC(CNc1cc(-c2ccc(OC(F)(F)F)cc2)ncn1)c1ccncc1` (stereo not drawn) [Example 125, 1-Pyridin-4-yl-2-[(6-{4-[(trifluoromethyl)oxy]phenyl}pyrimidin-4-yl)amino]ethanol], the IC50 against Rat FAAH-1 turned out to be 5000 nM; on FAAH, 890 nM.
The like results for `CC(O)c1ccc(-c2cc(NC[C@H](O)c3ccccc3)ncn2)cc1F` (stereo partly drawn) [Example 129, (1R)-2-({6-[3-Fluoro-4-(1-hydroxyethyl)phenyl]pyrimidin-4-yl}amino)-1-phenylethanol trifluoroacetic acid salt] were, in that order, 120 nM and 16 nM.
As to `O[C@@H](CNc1cc(-c2ccc3c(C(F)(F)F)noc3c2)ncn1)c1ccccc1` [Example 182, (1R)-1-Phenyl-2-({6-[3-(trifluoromethyl)-1,2-benzisoxazol-6-yl]pyrimidin-4-yl}amino)ethanol], the IC50 against Rat FAAH-1 amounted to 4 nM; against FAAH, 10 nM.
Regarding `OC(CNc1cc(-c2ccc(C(F)(F)F)c(Cl)c2)ncn1)c1ccc(-c2ccccn2)cc1` (stereo not drawn) [Example 193, 2-({6-[3-Chloro-4-(trifluoromethyl)phenyl]pyrimidin-4-yl}amino)-1-(4-Pyridin-2-ylphenyl)ethanol], the IC50 at Rat FAAH-1 is 850 nM; against FAAH, 40 nM.
The corresponding values for `O[C@@H](CNc1cc(-c2ccc3ncccc3c2)ncn1)c1ccccc1` [Example 170, (1R)-1-Phenyl-2-[(6-quinolin-6-ylpyrimidin-4-yl)amino]ethanol] are 4000 nM and 81 nM.
Regarding `O=[N+]([O-])c1ccc(C(O)CNc2cc(-c3ccc(OC(F)(F)F)cc3)ncn2)cc1` (stereo not drawn) [Example 107, 1-(4-Nitrophenyl)-2-[(6-{4-[(trifluoromethyl)oxy]phenyl}pyrimidin-4-yl)amino]ethanol], the IC50 turned out to be 320 nM on Rat FAAH-1 and 240 nM against FAAH.
Turning to `OC(CNc1cc(-c2ccc(C(F)(F)F)c(Cl)c2)ncn1)c1cc2cc(Br)ccc2s1` (stereo not drawn) [Example 218, 1-(5-Bromo-1-benzothiophen-2-yl)-2-({6-[3-chloro-4-(trifluoromethyl)phenyl]pyrimidin-4-yl}amino)ethanol], the IC50 on Rat FAAH-1 was 1000 nM; on FAAH, above 10000 nM.
Consider `CS(=O)(=O)c1ccc(-c2cc(NC[C@H](O)c3ccccc3)ncn2)cc1` [Example 66, (1R)-2-({6-[4-(Methylsulfonyl)phenyl]pyrimidin-4-yl}amino)-1-phenylethanol], for which the IC50 against Rat FAAH-1 amounted to 140 nM; on FAAH it was 73 nM.
The corresponding values for `CCOc1ccc(-c2cc(NC[C@H](O)c3ccccc3)ncn2)cc1C` [Example 31, (1R)-2-{[6-(4-Ethoxy-3-methylphenyl)pyrimidin-4-yl]amino}-1-Phenylethanol trifluoroacetic acid salt] are 21 nM and 3 nM.
